Data on five molecules can be found in US7109185B2, “Pharmaceutical formulations comprising indolinone derivatives” (Sugen, Inc., priority 2001, dated 2006).

In series [1] the test system is vascular endothelial growth factor receptor (Flk-1/KDR). Conditions: Fong et al. (1999) Cancer Res. 59:99–106; cited from earlier work.
Series [2] can be described thus: Plasma Stability Test: conversion of prodrug to drug after IV administration to dogs, HPLC analysis of blood plasma. Type of series: in vivo. Conditions: IV at 2 mg/mL, blood plasma followed for 4 hours. The protocol:
The prodrug (3Z)-3-[(3,5-dimethyl-1H-pyrrol-2-yl)-methylidene]-1-(1-pyrrolidinylmethyl)-1,3-dihydro-2H-indol-2-one was administered IV at 2 mg/mL to dogs. Levels of both prodrug and drug (3(Z)-3-[(3,5-dimethyl-1H-pyrrol-2-yl)-methylidene]-1,3-dihydro-2H-indol-2-one) were followed by HPLC analysis of blood plasma for 4 hours following dosing.

Series [3] is described as follows: Hydrolysis (pH stability profile) at pH 7.2 and 7.6. Type of series: physicochemical. Conditions: for half-life: buffer, read-out: Half life, t1/2 (hydrolysis). The source says: (3Z)-3-[(3,5-Dimethyl-1H-pyrrol-2-yl)-methylidene]-1-(1-pyrrolidinylmethyl)-1,3-dihydro-2H-indol-2-one is a Mannich base and is designed to hydrolyse to 3-(3,5-dimethyl-1H-pyrrol-2-ylmethylene)-1,3-dihydro-indol-2-one at physiological pH. The stability of (3Z)-3-[(3,5-dimethyl-1H-pyrrol-2-yl)-methylidene]-1-(1-pyrrolidinylmethyl)-1,3-dihydro-2H-indol-2-one is higher at a lower pH. […] The pH stability profile of (3Z)-3-[(3,5-dimethyl-1H-pyrrol-2-yl)-methylidene]-1-(1-pyrrolidinylmethyl)-1,3-dihydro-2H-indol-2-one at pH 7.2 and pH 7.6 is tabulated in table 1.

For the molecule `Cc1cc(C)c(C=C2C(=O)Nc3ccccc32)[nH]1` [3-(3,5-dimethyl-1H-pyrrol-2-ylmethylene)-1,3-dihydro-indol-2-one], the “inhibition of the vascular endothelial growth factor receptor (Flk-1/KDR)” value in series [1] is “highly active selective inhibitor”.

In the case of `Cc1cc(C)c(/C=C2\C(=O)N(CO)c3ccccc32)[nH]1` [Example 1, (3Z)-3-[(3,5-dimethyl-1H-pyrrol-2-yl)-methylidene]-1-(hydroxymethyl)-1,3-dihydro-2H-indol-2-one], the melting point (usually the temperature, or range, at which the solid turns liquid) lay in the range of 200 to 202 °C.

Turning to `Cc1cc(C)c(/C=C2\C(=O)N(COC(=O)CCC(=O)O)c3ccccc32)[nH]1` [Example 3, 4-({(3Z)-3-[(3,5-dimethyl-1H-pyrrol-2-yl)-methylidene]-2-oxo-2,3-dihydro-1H-indol-1-yl}methoxy)-4-oxobutanoic acid], the melting point fell in the range of 160 to 162 °C.

In turn, `CC(=O)OC(C)N1C(=O)/C(=C\c2[nH]c(C)cc2C)c2ccccc21` (stereo not shown) [Example 4, 1-{(3Z)-3-[(3,5-dimethyl-1H-pyrrol-2-yl)-methylidene]-2-oxo-2,3-dihydro-1H-indol-1-yl}ethyl acetate] gave a melting point of 107 to 110 °C.

Consider `Cc1cc(C)c(/C=C2\C(=O)N(CN3CCCC3)c3ccccc32)[nH]1` [Example 14, (3Z)-3-[(3,5-dimethyl-1H-pyrrol-2-yl)-methylidene]-1-(1-pyrrolidinylmethyl)-1,3-dihydro-2H-indol-2-one], for which the melting point is 129 to 132 °C. Also, in series [2], the “prodrug converted into drug (area under the curve of drug concentration vs time)” value was 80%. The half-life in series [2] (dog) was 7.3 min. In series [3] (pH 7.2), the half-life turned out to be 6.2 min. Moreover, the half-life in series [3] (pH 7.6) was determined as 6 min. For the same molecule, the “hydrolysis to 3-(3,5-dimethyl-1H-pyrrol-2-ylmethylene)-1,3-dihydro-indol-2-one” value in series [3] (physiological pH) is listed as “rapidly hydrolyses”.
